Assay results as given in patent US9944618B2, “Inhibiting neurotransmitter reuptake” (Mayo Foundation for Medical Education and Research, priority 2013, dated 2018).
Like-named read-outs stand apart in the source and are kept apart here.

Legend:
hERG = hERG (Homo sapiens (Human), UniProt Q12809); assay: Human ERG (hERG) assay, hERG currents in hERG-expressing CHO cells; assay type: cell-based; conditions: hERG-expressing CHO cells
From the text: The voltage-dependent potassium channel encoded by the human ether-a-go-go-related gene (hERG) is believed to play a key role in repolarisation of the ventricular cardiac action potential. Changes in its activity, caused either by inherited mutations of the gene sequence or pharmacological modification, can lead to prolongation of action potential duration. This can lead to prolongation of the QT interval recorded in man on an electrocardiogram and to a potentially fatal cardiac arrhythmia known as Torsades de Pointes.
hERG currents were recorded from hERG-expressing CHO cells. The biophysical and pharmacological characterization of the hERG currents in these cells was performed.

[1] = target: human norepinephrine transporter (Homo sapiens (Human), UniProt P23975); assay: Human NET (norepinephrine transporter) uptake assay; assay type: cell-based; conditions: read-out: hNET Ki
Sequence of human norepinephrine transporter (P23975 whole entry): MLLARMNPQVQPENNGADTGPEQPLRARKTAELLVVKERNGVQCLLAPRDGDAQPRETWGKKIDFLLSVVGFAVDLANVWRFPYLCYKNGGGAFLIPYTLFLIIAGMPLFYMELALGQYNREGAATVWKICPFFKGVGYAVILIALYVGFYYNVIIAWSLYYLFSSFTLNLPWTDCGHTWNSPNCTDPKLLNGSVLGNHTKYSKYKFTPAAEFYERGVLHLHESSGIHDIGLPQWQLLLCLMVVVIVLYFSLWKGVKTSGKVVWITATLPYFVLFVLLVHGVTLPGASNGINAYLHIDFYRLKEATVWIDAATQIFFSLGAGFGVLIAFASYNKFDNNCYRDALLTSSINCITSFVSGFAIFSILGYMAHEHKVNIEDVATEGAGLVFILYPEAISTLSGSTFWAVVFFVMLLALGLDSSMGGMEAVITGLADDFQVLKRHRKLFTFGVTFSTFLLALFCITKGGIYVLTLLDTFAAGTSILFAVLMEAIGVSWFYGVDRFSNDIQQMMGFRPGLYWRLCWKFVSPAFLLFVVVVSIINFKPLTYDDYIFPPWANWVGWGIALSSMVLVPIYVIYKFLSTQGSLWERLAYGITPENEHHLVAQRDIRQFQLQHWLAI
Summary of the method: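 HEK293F cells transfected with human NET were thawed, plated at about 60,000 cells/well and held at 37 °C for at least 3 h. Compounds came from 10 mM DMSO stocks, with nomifensine as control, in 1×HBSS/0.02 M HEPES. Uptake was followed with a neurotransmitter transporter dye, dosed as % of vendor reconstitution, in triplicate.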

[2] = target: human serotonin transporter (Homo sapiens (Human), UniProt P31645); assay: Human SERT (serotonin transporter) uptake assay; assay type: cell-based; conditions: read-out: hSERT Ki
Sequence of human serotonin transporter (P31645 whole entry): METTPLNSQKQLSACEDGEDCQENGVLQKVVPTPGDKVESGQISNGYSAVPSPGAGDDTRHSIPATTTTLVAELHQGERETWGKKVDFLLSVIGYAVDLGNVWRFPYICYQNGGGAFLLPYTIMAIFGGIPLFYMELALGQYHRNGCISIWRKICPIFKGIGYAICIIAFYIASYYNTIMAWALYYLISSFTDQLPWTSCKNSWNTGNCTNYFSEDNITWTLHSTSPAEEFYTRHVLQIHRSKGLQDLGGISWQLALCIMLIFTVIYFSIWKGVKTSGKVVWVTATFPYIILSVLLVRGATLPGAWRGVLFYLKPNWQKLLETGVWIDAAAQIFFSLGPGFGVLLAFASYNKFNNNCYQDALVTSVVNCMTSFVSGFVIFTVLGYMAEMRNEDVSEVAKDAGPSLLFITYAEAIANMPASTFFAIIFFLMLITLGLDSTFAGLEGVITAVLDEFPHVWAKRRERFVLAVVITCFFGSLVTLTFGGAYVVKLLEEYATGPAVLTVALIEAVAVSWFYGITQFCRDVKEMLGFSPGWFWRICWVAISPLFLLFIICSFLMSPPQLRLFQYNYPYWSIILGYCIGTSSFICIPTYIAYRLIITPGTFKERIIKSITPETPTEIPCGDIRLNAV
Summary of the method: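 HEK293F cells transfected with human SERT, about 60,000 per well, settled for ≥3 h at 37° C before compound addition. Uptake was followed with a fluorescent transporter dye in HBSS with 0.02 M HEPES. Background came from 10 μM fluoxetine, nomifensine was the control, n=3.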

CYP2D6 = CYP2D6 (Homo sapiens (Human), UniProt P10635); assay: Cytochrome P450 inhibition assay, recombinant CYP2D6 (MAMC substrate); assay type: in vitro ADME; conditions: recombinant enzyme
Sequence of CYP2D6 (P10635 whole entry): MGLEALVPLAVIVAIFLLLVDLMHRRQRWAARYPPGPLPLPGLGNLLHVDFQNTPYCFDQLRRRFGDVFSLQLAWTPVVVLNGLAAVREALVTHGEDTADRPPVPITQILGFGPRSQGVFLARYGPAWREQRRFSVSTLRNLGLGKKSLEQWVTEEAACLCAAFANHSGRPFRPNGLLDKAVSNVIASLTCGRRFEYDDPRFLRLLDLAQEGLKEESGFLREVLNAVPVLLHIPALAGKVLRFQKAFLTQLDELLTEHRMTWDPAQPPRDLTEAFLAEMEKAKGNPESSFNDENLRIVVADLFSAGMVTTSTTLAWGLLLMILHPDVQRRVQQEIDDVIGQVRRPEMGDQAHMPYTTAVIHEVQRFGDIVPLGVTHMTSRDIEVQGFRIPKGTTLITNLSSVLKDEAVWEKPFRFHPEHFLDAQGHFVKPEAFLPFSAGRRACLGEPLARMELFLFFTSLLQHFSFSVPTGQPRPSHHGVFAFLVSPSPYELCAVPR

[3] = pKa of basic centres (Table 1); assay type: physicochemical
[4] = target: human dopamine transporter (Homo sapiens (Human), UniProt Q01959); assay: Human DAT (dopamine transporter) uptake assay; assay type: cell-based; conditions: read-out: hDAT Ki
Sequence of human dopamine transporter (Q01959 whole entry): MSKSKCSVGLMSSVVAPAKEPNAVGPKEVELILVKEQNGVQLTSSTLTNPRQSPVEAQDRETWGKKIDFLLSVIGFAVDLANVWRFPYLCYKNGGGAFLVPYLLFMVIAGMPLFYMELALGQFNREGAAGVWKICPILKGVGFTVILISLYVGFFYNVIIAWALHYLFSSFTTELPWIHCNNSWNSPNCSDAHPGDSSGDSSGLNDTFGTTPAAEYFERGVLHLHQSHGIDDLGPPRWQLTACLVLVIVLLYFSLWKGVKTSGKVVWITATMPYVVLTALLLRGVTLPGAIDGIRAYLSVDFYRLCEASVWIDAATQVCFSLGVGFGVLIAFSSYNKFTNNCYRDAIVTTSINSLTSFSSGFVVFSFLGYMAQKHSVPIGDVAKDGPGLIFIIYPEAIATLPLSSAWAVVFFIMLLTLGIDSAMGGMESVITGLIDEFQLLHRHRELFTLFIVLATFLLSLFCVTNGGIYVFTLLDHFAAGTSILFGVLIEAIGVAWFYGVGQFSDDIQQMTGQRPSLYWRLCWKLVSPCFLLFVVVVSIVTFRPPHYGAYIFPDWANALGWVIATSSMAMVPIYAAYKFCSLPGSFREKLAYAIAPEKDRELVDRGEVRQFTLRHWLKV
Summary of the method: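 Uptake inhibition was measured in HEK293F cells transfected with human DAT, plated at ~60,000 cells/well and settled ≥3 h at 37 °C. Compounds came from 10 mM DMSO stocks. Read-out was uptake of a fluorescent neurotransmitter transporter dye in HBSS with 0.02 M HEPES, with dye level given as % of vendor reconstitution; n=3.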

CYP3A4 = CYP3A4 (Homo sapiens (Human), UniProt P08684); assay: Cytochrome P450 inhibition assay, recombinant CYP3A4 (BFC substrate); assay type: in vitro ADME; conditions: recombinant enzyme
Sequence of CYP3A4 (P08684 whole entry): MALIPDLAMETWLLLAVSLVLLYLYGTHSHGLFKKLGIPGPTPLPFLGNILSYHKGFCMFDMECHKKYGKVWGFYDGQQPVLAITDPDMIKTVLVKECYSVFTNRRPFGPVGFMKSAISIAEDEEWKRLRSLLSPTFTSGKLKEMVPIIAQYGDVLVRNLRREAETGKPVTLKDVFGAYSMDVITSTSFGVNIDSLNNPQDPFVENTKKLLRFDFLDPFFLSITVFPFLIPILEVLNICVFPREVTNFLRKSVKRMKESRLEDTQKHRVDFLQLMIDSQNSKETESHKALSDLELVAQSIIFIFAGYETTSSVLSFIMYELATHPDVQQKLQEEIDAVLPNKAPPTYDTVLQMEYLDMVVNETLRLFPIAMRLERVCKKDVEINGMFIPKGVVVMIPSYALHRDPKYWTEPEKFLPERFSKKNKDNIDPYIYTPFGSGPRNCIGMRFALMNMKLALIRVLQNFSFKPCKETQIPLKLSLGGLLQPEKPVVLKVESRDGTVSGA

[5] = first base, e.g., an aliphatic primary, secondary, or tertiary amine, read-out: pKa (Base 1)
[6] = second base in the same molecule (if present), read-out: pKa (Base 2)

Sequence of hERG (Q12809 whole entry): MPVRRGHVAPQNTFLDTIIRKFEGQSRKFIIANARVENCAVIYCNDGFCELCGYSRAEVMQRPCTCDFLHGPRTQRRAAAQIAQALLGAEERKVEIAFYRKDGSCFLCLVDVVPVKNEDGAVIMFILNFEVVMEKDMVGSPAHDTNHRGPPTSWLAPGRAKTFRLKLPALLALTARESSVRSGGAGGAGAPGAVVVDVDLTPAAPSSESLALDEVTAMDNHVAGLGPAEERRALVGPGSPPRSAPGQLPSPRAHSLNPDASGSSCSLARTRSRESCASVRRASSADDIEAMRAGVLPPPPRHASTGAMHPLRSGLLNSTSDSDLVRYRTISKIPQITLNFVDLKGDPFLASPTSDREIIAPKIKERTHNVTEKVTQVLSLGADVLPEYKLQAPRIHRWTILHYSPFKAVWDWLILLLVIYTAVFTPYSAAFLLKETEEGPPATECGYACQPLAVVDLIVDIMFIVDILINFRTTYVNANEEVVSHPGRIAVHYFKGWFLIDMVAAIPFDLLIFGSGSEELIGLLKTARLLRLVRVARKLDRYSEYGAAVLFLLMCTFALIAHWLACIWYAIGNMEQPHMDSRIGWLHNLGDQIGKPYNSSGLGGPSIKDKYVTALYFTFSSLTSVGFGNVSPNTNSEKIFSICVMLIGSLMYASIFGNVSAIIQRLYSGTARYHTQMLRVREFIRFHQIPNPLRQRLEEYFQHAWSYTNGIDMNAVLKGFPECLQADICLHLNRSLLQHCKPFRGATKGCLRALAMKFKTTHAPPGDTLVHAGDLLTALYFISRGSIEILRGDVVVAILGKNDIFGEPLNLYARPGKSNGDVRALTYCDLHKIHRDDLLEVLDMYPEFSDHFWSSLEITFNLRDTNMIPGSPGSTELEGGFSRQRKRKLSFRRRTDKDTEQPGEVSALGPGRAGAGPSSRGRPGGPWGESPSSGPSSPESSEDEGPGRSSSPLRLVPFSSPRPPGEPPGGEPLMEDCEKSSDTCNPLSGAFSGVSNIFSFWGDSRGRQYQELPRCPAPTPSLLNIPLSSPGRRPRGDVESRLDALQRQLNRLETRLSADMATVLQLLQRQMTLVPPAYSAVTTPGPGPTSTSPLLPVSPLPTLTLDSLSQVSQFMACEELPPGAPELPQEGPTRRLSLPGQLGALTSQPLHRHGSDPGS

Compound	IC50 (hERG) [nM]	Ki [1] [nM]	Ki [2] [nM]	IC50 (CYP2D6) [nM]	pKa [3, 5]	Ki [4] [nM]	IC50 (CYP3A4) [nM]	pKa [3, 6]	pKa (Base 1) ([3]; first base, e.g., an aliphatic primary, secondary, or tertiary amine)
CNCC(Cc1cccs1)c1ccc2ccccc2c1 (racemic) [Compound 40]	4100	3.2	3.3	960	10	114	19000	–	–
CNC[C@H](c1ccc(Br)c(Cl)c1)[C@H](O)c1ccccc1 (racemic) [Compound 43]	7100	3.3	19.7	110	9.4	7.3	8100	–	–
CNCC(c1ccc(Cl)c(Cl)c1)[C@H](O)c1ccccc1 (mixture of isomers) [Compound 53]	9800	4.5	17.3	410	9.4	9.8	≥ 20000	–	–
CNC[C@H](c1ccc2ccccc2c1)[C@H](O)c1ccccc1C (racemic) [Compound 56]	22000	4.7	6.7	240	9.7	40.4	11000	–	–
CNC[C@H](c1ccc2ccccc2c1)[C@H](O)c1cccnc1 (racemic) [Compound 62]	25000	6.5	9.9	1000	9.6	45	≥ 20000	5.1	–
CNC[C@@H](c1ccc2ccccc2c1)[C@H](O)c1ccccn1 (racemic) [Compound 72]	33000	10.1	27.6	760	9.6	100	≥ 20000	4.1	–
CN(C)C[C@H](c1ccc2ccccc2c1)[C@H](O)c1cccs1 (racemic) [Compound 135]	3100	11.7	21.4	910	8.9	58.1	≥ 20000	–	–
CNC[C@H](c1ccc2ccccc2c1)[C@H](OC)c1ccc2c(c1)OCO2 (racemic) [Compound 136]	5400	37.4	15.7	190	9.7	64.5	3400	–	–
CNC[C@@H](c1ccc2ccccc2c1)[C@@H](O)c1ccc2c(c1)OCCO2 (racemic) [Compound 145]	11000	10.9	9.4	310	9.7	134	19000	–	–
CNC[C@H](c1ccc(Cl)c(Cl)c1)[C@H](O)c1cccc(I)c1 (single isomer, unassigned) [Compound 151]	3800	20.4	45.2	130	9.4	31.4	2100	–	–
CNC[C@H](c1ccc2ccccc2c1)[C@H](OCC(N)=O)c1ccccc1 [Compound 3]	33000	1.3	0.6	1300	9.6	5.2	20000	–	–
CNC[C@@H](Cc1ccccc1)c1ccc2ccccc2c1 [Compound 5]	6500	1.4	2.8	240	10.1	10.1	18000	–	–
CNC[C@H](c1ccc2ccccc2c1)[C@H](F)c1ccccc1 [Compound 9]	9500	1.5	5.7	210	9.4	42.3	8600	–	–
CNC[C@H](c1ccc(Cl)c(Cl)c1)[C@H](O)c1ccccc1 [Compound 10]	9100	1.5	11.7	120	9.4	7.3	20000	–	–
CNC[C@H](c1ccc2ccccc2c1)[C@@H](F)c1ccccc1 [Compound 11]	11000	1.6	4.2	96	9.4	11.1	6700	–	–
CNC[C@H](c1ccc2ccccc2c1)[C@H](OCC(=O)NC1CC1)c1ccccc1 [Compound 13]	19000	1.6	5.4	400	9.6	19.7	17000	–	–
CNC[C@H](c1ccc2ccccc2c1)[C@H](OCC(=O)NCCO)c1ccccc1 [Compound 14]	33000	1.6	3.1	3700	9.6	79.3	20000	–	–
CNC[C@H](c1ccc2ccccc2c1)[C@H](O)c1ccccc1F [Compound 15]	12000	1.7	2.4	200	9.7	42.5	20000	–	–
CNCC(c1ccc(Br)c(Cl)c1)[C@H](O)c1ccccc1 (some centres unmarked) [Compound 16]	5000	1.8	6.3	230	9.4	6.6	19000	–	–
CNC[C@H](c1ccc2ccccc2c1)[C@H](OCC(=O)N1CC[C@H](O)C1)c1ccccc1 [Compound 19]	33000	1.9	4.3	20000	9.6	17	20000	–	–
CNC[C@H](c1ccc(Br)c(Cl)c1)[C@@H](O)c1ccccc1 [Compound 21]	23000	2	66.4	470	9.4	32.4	20000	–	–
CNC[C@H](c1ccc2ccccc2c1)[C@H](OCc1noc(C)n1)c1ccccc1 [Compound 22]	15000	2	2.1	180	9.6	56.7	15000	–	–
CNC[C@H](c1ccc2ccccc2c1)[C@H](OCC(=O)N1CCOCC1)c1ccccc1 [Compound 23]	21000	2	5.6	4900	9.6	65.6	20000	–	–
CNC[C@H](c1ccc2ccccc2c1)[C@H](O)c1ccc(Cl)nc1 [Compound 26]	7500	2.2	1.6	27	9.6	53.5	20000	–	–
CNC[C@H](c1ccc2ccccc2c1)[C@H](O)c1ccccc1C [Compound 28]	15000	2.4	3.4	160	9.7	43.8	9600	–	–
CNC[C@H](c1ccc2ccccc2c1)[C@H](OCC(=O)N1CC[C@@H](O)C1)c1ccccc1 [Compound 34]	33000	2.7	7.5	12000	9.6	28.5	20000	–	–
CNCC(Cc1ccccc1C)c1ccc2ccccc2c1 (centres unmarked) [Compound 39]	8200	3.1	12.6	170	–	34.3	8400	–	10.1
